According to US7871978B2, “Bone tropic peptides” (University of Virginia Patent Foundation, priority 2004, dated 2011):

What was measured:
[1] = system: bovine aortic endothelial cells; experiment: Effect of peptides on adherent bovine aortic endothelial cells on fibronectin or collagen; format: cell-based; details: 0.1M biotinylated peptide, 1 hour; cells adhered four hours on fibronectin or collagen
Protocol: Peptides from the phage display project were added to bovine aortic endothelial cells in culture. The endothelial cells had adhered to a surface coated with collagen or with fibronectin.
Experiment 1: Bovine aortic endothelial cells were plated on glass slides that were coated either fibronectin or collagen. The cell density was 5,000 cells/well. After the cells adhered for four hours, 0.1M of biotinylated peptide was added to each well. The following peptides were used: L1, L2, L5, L6, L7, L12, L13, L14, L19, R1, R3, and R8.
To perform this experiment, the media was removed and the cells were rinsed with 1×PBS plus 1% BSA three times. Peptides were diluted in 1×PBS plus 1% BSA, added to cells and incubated for 1 hour. The cells were rinsed three times with 1% BSA in PBS, and fixed with 2% parafomaldehyde. Aldehyde groups were blocked with 0.2 M HCl-glycine in PBS, the cells were rinsed three times with 1% BSA in PBS and ExtrAvidin-FITC (1:200 dilution) was added and incubated overnight at 4° C. The cells were rinsed three times with 1% BSA in PBS. The chambers and the gasket were removed from each slide, Vectashield was added, covered and viewed on a Nikon microscope. Images were acquired using a Coolsnap digital camera and Metavue software. […]
Experiment 3: The cells were adherent for about 6 hours and peptides at various concentrations were added to the cells. The concentrations of each of the peptides used in this experiment were: 0.1M, 0.01M, 0.001M and 0.0001M biotinylated peptide. The following peptides were tested: L1, L5, L6, L7, L13, L14, R1, R3, R8, DIP1 and PBS control (SEQ ID NOs:1, 3, 4, 5, 8, 9, 11, 13, 14, and 29).

bone and bone marrow = experiment: In vivo biopanning with 12-mer peptide phage display library; set-up: species or system BALB/c mice; details: for PERCENT FREQUENCY: phage eluted from bone and bone marrow; for PHAGE SEQUENCE FREQUENCY (number of times the sequence was found in a group of plaques): phage eluted from bone and bone marrow after repeated rounds
Description: The Ph.D.-12 Phage Display Peptide Library Kit (New England Biolabs, Beverly, Mass.) used in this study is based on a combinatorial library of random peptide 12-mers fused to a minor coat protein (pIII). […] The peptide is followed by a short spacer of four amino acid residues, the first three residues of which are glycine and the fourth of which is serine, and then the wild-type III sequence. The library consists of approximately 2.7×10^9 electroporated sequences, amplified once to yield approximately 55 copies of each sequence.
For in vivo biopanning, BALB/c mice 8 weeks of age were injected 3.4×10^10 pfu of phage into the heart. The animals were euthanized after 5 minutes, and the tissues (bone, bone marrow, kidney, liver, and spleen) were collected for analysis. The bound phage was eluted according the manufacturer's instructions. The eluted phage was titered, amplified, purified, and injected again at the same concentration.
The frequency of each peptide in bone and bone marrow was compared with its location in other tissues such as liver, kidney, lung, spleen, and brain. Thirteen unique peptide sequences eluted from bone and marrow were identified were identified by sequencing phage DNA. The peptides were synthesized using the polystyrene solid support on a Protein Technologies Symphony Multiple Channel Synthesizer.

[2] = system: Unicortical femoral defects; experiment: Peptide-mediated osteogenesis in cortical bone defects (Example 8); format: in vivo, Fisher 344 rats; details: 100 mM peptide in gelfoam, two weeks postoperatively; for Effectiveness at stimulating osteogenesis and cortical bone repair: versus gelfoam+PBS
Protocol: In an in vivo study, all 13 peptides at a concentration of 100 mM were tested for their ability to potentiate osteogenesis. A gelfoam cylinder 1.5 mm in diameter 2 mm in length was used as carrier for the peptides. Unicortical femoral defects 1.5 mm in diameter were created bilaterally in Fisher 344 rats; the left femoral defect was filled with gelfoam+PBS (Control), and the right femur with gelfoam+peptide. The samples were harvested and examined two weeks postoperatively. To examine the effect of peptide concentration on cortical bone regeneration, peptide L7 (SEQ ID NO:5) was used at 1, 5, and 20 mM. […] The time course of cortical bone repair with 20 mM L7 was examined at 5, 10, 15, and 20 days.

Substance	Effect on adherent BAEC (Experiment 1) [1]	PERCENT FREQUENCY (bone and bone marrow)	PHAGE SEQUENCE FREQUENCY (number of times the sequence was found in a group of plaques) (bone and bone marrow)	Histological appearance of repair tissue in the defect [2]	Effectiveness at stimulating osteogenesis and cortical bone repair [2]
LEU-PRO-TRP-THR-GLU-PRO-SER-PHE-TRP-ARG-THR-PRO-GLY-GLY-GLY-SER (LPWTEPSFWRTPGGGS; homo sapiens) [Peptide D1P1]	no effect, with results similar to PBS				
SER-SER-THR-LEU-LYS-THR-PHE-PHE-GLY-PHE-PRO-ASP-GLY-GLY-GLY-SER (SSTLKTFFGFPDGGGS; listed as Homo sapiens) [Peptide L14]	no effect, with results similar to PBS	40.0%	12/30	a considerable amount of gelfoam remaining in the defects, with thinner and more loosely organized cortical bone	least effective for cortical bone repair
ASN-ASN-VAL-SER-GLN-LYS-TRP-GLN-GLN-ARG-LEU-ILE-GLY-GLY-GLY-SER (NNVSQKWQQRLIGGGS; listed as Homo sapiens) [Peptide L6]	the cells had lifted completely and most of the cells disappeared from the surface of the slides, leaving a lot of cell debris	17.9%	5/28		most effective at stimulating osteogenesis and cortical bone repair
GLY-ILE-HIS-VAL-PRO-TRP-MET-PRO-PRO-VAL-ALA-PHE-GLY-GLY-GLY-SER (GIHVPWMPPVAFGGGS; listed as Homo sapiens) [Peptide L11]		3.3%	1/30		
LYS-GLU-ILE-PRO-PRO-ILE-PRO-LEU-LEU-ALA-PRO-SER-GLY-GLY-GLY-SER (KEIPPIPLLAPSGGGS; listed as Homo sapiens) [Peptide L5]	the cells had lifted completely and most of the cells disappeared from the surface of the slides, leaving a lot of cell debris	17.9%	5/28	while some ossification and cortical bone regeneration has occurred, considerable amounts of gelfoam remains in the defect	virtually no stimulatory effect on osteogenesis
